Laboratory results taken from ChEMBL document CHEMBL5126514, “Molecular design of dual inhibitors of PI3K and potential molecular target of cancer for its treatment: A review” (Eur J Med Chem, 2022).
pIC50: −log10 of the molar value. One block for each molecule: values may come before it.

Tests used:
[1] = biological target: T1, Phosphatidylinositol 4,5-bisphosphate 3-kinase catalytic subunit alpha isoform (Homo sapiens, UniProt P42336); test: Inhibition of full-length PI3Kalpha (unknown origin) expressed in baculovirus infected Sf9 cells by ADP-Glo luminescent kinase assay
[2] = biological target: T2, Phosphatidylinositol 4,5-bisphosphate 3-kinase catalytic subunit delta isoform (Homo sapiens, UniProt O00329); test: Inhibition of full-length PI3Kdelta (unknown origin) expressed in baculovirus infected Sf9 cells by ADP-Glo luminescent kinase assay
T2 sequence (O00329 whole entry): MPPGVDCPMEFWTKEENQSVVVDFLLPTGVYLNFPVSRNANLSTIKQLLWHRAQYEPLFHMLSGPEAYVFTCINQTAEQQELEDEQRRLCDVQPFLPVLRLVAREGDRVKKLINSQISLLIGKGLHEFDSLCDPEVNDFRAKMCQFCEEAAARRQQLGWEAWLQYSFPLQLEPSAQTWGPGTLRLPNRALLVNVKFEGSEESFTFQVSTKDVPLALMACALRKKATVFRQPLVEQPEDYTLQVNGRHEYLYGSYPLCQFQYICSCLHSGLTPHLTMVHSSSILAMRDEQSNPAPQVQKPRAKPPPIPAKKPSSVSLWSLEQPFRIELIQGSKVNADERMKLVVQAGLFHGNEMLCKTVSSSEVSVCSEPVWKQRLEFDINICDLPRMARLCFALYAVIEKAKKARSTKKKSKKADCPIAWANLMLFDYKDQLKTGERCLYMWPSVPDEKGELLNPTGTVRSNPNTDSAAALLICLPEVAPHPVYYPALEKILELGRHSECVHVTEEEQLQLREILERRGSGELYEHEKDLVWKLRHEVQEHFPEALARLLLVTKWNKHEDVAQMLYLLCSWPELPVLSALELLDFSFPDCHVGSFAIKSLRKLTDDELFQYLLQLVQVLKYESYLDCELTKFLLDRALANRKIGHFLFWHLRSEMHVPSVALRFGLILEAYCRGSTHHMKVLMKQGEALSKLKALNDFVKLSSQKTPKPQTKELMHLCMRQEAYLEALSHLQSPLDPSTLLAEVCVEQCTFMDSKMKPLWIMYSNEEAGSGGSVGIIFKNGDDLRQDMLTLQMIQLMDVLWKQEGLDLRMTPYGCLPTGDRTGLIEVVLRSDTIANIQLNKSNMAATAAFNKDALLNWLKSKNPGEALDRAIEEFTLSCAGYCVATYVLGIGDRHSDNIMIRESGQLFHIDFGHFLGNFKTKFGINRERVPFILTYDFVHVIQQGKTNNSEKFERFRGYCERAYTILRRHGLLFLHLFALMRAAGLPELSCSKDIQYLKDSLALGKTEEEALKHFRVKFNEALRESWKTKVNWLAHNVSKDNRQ

[3] = biological target: T3, Polyamine deacetylase HDAC10 (Homo sapiens, UniProt Q969S8); test: Inhibition of full-length HDAC10 (unknown origin) by Color-de-Lys assay
T3 sequence (Q969S8 whole entry): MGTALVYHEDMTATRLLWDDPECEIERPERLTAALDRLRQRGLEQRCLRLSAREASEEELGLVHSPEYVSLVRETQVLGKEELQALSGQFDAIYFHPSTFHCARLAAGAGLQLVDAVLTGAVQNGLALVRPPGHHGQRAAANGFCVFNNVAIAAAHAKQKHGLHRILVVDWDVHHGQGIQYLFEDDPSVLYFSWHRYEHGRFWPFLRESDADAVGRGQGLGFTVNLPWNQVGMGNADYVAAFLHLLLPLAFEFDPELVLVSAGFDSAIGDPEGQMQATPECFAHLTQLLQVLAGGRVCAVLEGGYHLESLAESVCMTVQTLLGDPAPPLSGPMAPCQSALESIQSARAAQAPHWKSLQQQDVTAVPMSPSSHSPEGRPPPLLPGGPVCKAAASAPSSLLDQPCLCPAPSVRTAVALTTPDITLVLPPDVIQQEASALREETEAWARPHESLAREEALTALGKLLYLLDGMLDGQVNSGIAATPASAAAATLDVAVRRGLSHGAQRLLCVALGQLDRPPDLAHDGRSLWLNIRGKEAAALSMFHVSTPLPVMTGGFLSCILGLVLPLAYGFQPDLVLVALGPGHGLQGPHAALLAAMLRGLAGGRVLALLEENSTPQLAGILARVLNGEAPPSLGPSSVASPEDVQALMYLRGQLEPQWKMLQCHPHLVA

[4] = biological target: Phosphatidylinositol 4,5-bisphosphate 3-kinase catalytic subunit beta isoform (Homo sapiens, UniProt P42338); test: Inhibition of full-length PI3Kbeta (unknown origin) expressed in baculovirus infected Sf9 cells by ADP-Glo luminescent kinase assay
[5] = tested on: KB; test: Anticancer activity against human KB cells assessed as growth inhibition; type: functional, cell-based
[6] = Anticancer activity against human TU183 cells assessed as growth inhibition; type: functional, cell-based
[7] = biological target: T2, Phosphatidylinositol 4,5-bisphosphate 3-kinase catalytic subunit delta isoform; test: Inhibition of PI3Kdelta (unknown origin) expressed in baculovirus expression system using L-alpha-phosphatidylinositol as substrate by luminescence assay
[8] = tested on: SCC-4; test: Anticancer activity against human SCC-4 cells assessed as growth inhibition; type: functional, cell-based
[9] = Inhibition of PI3K (unknown origin); set-up: species or system Homo sapiens
[10] = Inhibition of mTORC1 (unknown origin); set-up: species or system Homo sapiens
[11] = biological target: T4, Protein deacetylase HDAC6 (Homo sapiens, UniProt Q9UBN7); test: Inhibition of full-length HDAC6 (unknown origin) by Color-de-Lys assay
T4 sequence (Q9UBN7 whole entry): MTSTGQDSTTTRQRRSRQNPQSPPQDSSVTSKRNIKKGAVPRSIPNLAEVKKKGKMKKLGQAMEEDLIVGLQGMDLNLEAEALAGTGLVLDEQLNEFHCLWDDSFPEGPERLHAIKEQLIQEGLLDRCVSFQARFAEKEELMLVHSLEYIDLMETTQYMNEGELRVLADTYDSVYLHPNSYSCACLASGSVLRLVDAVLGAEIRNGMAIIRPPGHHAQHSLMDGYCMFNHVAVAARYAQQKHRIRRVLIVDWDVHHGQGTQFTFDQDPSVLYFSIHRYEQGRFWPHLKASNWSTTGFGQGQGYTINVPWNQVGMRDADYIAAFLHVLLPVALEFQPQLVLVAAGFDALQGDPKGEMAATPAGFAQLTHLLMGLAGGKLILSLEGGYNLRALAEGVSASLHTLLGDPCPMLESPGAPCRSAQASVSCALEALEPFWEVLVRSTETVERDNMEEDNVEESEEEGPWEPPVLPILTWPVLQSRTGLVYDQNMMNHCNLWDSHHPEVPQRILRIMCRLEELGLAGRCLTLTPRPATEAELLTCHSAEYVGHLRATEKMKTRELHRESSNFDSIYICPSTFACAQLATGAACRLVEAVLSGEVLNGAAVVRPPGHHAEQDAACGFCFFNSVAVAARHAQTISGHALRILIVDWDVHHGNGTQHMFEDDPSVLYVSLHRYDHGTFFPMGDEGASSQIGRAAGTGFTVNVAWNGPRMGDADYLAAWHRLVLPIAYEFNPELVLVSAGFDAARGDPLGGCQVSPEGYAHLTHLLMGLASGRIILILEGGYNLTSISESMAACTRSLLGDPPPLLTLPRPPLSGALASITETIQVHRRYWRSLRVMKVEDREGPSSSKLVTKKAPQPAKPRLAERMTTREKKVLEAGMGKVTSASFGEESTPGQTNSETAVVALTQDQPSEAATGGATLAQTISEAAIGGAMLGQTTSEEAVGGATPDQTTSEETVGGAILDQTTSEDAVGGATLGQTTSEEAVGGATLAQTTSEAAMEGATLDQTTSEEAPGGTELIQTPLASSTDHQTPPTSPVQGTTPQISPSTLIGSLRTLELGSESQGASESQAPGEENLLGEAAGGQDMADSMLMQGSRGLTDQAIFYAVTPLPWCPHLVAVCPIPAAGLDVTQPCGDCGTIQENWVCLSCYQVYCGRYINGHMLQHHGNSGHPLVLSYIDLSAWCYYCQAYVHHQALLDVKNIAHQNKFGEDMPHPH

[12] = biological target: Histone deacetylase 1 (Homo sapiens, UniProt Q13547); test: Inhibition of full-length HDAC1 (unknown origin) by Color-de-Lys assay
[13] = biological target: T1, Phosphatidylinositol 4,5-bisphosphate 3-kinase catalytic subunit alpha isoform; test: Inhibition of PI3Kalpha (unknown origin) expressed in baculovirus expression system using L-alpha-phosphatidylinositol as substrate by luminescence assay
[14] = biological target: T5, Mitogen-activated protein kinase; ERK1/ERK2 (Homo sapiens) (UniProt P27361+P28482); test: Inhibition of Erk1/2 phosphorylation in human A549 cells; type: cell-based; conditions: concentration not given here
[15] = biological target: T1, Phosphatidylinositol 4,5-bisphosphate 3-kinase catalytic subunit alpha isoform; test: Inhibition of PI3Kalpha (unknown origin)
[16] = tested on: A549; test: Anticancer activity against human A549 cells assessed as cell killing activity at 10 uM relative to control; type: functional
[17] = tested on: PANC-1; test: Anticancer activity against human PANC-1 cells assessed as cell killing activity at 25 uM relative to control; type: functional
[18] = biological target: T5, Mitogen-activated protein kinase; ERK1/ERK2 (Homo sapiens); test: Inhibition of Erk1/2 phosphorylation in human PANC-1 cells at 5 uM relative to control; type: cell-based
[19] = biological target: T2, Phosphatidylinositol 4,5-bisphosphate 3-kinase catalytic subunit delta isoform; test: Inhibition of PI3Kdelta (unknown origin)
[20] = biological target: Phosphatidylinositol 4,5-bisphosphate 3-kinase catalytic subunit gamma isoform (Homo sapiens, UniProt P48736); test: Inhibition of PI3Kgamma (unknown origin) expressed in baculovirus expression system using L-alpha-phosphatidylinositol as substrate by luminescence assay
Sequence of Phosphatidylinositol 4,5-bisphosphate 3-kinase catalytic subunit gamma isoform (P48736 whole entry, canonical isoform): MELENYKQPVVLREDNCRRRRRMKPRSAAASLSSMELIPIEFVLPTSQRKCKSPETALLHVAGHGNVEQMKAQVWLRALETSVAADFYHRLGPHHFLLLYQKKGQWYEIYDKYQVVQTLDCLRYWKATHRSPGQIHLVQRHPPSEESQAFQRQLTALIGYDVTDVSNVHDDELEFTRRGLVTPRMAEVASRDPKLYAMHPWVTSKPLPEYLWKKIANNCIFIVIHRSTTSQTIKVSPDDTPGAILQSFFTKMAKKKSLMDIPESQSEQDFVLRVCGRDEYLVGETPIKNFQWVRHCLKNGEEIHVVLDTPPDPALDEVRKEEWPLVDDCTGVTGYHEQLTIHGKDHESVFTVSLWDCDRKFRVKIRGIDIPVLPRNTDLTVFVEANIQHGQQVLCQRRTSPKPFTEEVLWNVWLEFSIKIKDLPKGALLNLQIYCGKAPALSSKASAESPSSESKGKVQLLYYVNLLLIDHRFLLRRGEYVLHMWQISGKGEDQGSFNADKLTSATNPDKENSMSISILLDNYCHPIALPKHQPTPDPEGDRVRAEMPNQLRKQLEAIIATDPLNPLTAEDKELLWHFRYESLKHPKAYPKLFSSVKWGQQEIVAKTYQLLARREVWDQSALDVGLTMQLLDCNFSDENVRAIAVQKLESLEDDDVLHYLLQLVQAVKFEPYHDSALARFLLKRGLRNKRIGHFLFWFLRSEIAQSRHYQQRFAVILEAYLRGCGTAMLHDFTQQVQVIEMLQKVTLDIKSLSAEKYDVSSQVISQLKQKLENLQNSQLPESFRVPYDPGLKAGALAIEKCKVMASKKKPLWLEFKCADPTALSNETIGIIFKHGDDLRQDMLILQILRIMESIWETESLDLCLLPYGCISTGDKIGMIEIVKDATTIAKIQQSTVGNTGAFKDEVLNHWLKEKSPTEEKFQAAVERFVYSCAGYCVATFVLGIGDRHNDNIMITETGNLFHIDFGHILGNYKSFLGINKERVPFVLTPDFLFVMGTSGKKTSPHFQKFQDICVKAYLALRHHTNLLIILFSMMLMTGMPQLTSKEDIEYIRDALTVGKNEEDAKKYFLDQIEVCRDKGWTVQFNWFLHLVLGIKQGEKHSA

T1 sequence (P42336 whole entry, canonical isoform): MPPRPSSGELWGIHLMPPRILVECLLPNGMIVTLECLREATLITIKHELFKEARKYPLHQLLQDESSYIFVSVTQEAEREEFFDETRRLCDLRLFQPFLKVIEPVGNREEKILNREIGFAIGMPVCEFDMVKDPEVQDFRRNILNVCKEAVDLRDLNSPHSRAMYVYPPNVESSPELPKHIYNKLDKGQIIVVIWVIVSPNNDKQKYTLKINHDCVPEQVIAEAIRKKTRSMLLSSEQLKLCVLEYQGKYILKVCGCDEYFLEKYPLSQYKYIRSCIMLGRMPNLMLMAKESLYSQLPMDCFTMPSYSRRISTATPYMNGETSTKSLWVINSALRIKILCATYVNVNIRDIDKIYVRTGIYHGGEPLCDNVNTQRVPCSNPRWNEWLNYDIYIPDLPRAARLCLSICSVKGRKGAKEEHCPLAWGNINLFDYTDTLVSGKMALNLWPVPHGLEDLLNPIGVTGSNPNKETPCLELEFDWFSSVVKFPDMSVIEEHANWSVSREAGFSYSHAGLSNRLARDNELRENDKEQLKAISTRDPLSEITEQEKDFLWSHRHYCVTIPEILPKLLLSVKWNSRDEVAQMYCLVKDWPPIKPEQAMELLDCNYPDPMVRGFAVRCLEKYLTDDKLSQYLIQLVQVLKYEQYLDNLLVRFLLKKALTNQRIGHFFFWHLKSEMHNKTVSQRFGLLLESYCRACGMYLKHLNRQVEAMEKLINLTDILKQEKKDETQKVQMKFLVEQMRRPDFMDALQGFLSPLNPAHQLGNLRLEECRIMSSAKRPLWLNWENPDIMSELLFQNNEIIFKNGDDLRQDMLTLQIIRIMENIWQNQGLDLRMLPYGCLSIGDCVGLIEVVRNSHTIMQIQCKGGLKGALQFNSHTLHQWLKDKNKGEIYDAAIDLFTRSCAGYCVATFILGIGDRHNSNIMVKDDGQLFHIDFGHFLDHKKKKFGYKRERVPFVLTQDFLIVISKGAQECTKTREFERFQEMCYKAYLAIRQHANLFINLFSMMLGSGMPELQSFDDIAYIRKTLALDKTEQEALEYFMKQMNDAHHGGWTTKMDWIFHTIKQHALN
Sequence of Histone deacetylase 1 (Q13547 whole entry, canonical isoform): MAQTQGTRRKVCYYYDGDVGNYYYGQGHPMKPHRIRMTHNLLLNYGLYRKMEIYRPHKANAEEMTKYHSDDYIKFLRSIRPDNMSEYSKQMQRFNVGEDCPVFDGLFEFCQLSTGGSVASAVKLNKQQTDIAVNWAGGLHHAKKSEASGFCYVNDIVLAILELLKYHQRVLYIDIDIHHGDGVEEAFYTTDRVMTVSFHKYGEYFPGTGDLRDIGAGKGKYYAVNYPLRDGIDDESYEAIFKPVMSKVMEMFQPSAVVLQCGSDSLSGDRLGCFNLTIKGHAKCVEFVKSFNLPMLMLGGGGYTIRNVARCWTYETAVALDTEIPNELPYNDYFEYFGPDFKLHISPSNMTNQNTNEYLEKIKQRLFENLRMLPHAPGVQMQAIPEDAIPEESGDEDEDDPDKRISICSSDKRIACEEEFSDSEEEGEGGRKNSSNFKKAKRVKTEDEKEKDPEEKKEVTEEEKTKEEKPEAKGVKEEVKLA
T5 sequence (P27361 whole entry, looked up, canonical isoform): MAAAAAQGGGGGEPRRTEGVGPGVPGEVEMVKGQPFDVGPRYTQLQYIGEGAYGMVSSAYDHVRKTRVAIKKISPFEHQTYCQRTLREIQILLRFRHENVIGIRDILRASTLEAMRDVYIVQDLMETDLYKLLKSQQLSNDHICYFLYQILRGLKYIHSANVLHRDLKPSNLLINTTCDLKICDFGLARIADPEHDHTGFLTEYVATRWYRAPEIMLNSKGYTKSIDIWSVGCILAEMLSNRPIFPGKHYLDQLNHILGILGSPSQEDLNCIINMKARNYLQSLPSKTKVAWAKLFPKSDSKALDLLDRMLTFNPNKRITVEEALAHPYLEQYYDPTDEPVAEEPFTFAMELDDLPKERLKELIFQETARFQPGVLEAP
T5 sequence (P28482 whole entry, looked up, canonical isoform): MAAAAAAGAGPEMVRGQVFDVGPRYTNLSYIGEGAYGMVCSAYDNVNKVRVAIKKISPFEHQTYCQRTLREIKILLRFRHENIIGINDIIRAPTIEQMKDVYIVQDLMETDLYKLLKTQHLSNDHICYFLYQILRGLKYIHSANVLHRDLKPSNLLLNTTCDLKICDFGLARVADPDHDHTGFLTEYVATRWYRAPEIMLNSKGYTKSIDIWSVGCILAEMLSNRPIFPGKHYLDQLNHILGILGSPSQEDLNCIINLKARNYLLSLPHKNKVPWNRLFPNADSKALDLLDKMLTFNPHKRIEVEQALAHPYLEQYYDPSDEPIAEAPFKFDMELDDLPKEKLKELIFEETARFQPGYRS
Sequence of Phosphatidylinositol 4,5-bisphosphate 3-kinase catalytic subunit beta isoform (P42338 whole entry, canonical isoform): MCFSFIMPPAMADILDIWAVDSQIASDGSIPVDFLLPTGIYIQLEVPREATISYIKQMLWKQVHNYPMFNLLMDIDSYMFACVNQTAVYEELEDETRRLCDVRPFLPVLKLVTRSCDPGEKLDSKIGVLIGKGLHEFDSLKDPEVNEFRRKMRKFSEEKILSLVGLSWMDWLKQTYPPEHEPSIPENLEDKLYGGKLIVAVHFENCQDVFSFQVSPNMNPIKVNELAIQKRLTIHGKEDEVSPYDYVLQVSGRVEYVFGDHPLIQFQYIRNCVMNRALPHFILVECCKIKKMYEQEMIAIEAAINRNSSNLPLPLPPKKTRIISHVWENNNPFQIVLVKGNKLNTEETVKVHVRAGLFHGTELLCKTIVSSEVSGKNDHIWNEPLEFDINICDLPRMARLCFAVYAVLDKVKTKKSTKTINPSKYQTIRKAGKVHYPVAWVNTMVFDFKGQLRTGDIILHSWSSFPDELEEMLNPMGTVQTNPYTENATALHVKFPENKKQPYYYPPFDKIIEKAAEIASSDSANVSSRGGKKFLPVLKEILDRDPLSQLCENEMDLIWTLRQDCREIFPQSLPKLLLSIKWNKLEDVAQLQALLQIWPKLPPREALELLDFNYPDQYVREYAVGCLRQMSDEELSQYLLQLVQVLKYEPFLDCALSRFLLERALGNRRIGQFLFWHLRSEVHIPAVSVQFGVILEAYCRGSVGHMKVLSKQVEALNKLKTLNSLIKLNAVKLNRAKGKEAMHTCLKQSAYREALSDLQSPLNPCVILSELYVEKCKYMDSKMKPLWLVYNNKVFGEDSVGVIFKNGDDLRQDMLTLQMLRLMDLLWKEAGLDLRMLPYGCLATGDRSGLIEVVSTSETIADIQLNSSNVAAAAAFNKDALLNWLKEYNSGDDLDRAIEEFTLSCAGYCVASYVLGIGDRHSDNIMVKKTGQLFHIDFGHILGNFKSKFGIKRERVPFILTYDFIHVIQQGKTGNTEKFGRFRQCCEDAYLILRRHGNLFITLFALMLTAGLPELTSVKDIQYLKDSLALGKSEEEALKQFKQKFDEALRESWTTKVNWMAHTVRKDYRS

SMILES: Cn1cc(CNCC2CCN(c3ncc(C(=O)NO)cn3)CC2)c2ccccc21 [QUISINOSTAT]
- pIC50 [1]: 7.72
- pIC50 [2]: 7.41
- pIC50 [3]: 8.55
- pIC50 [4]: 7.27

SMILES: O=C(NO)c1ccc(/C=N/NC(=O)c2ccnc(-c3ccccc3)n2)cc1
- pIC50 [11]: 7.73

SMILES: Cc1c(Cc2cccc(N(C)S(=O)(=O)CCCNCCCCCC(=O)N3CCN(c4nc(N5CCOCC5)nc(-n5c(C(F)F)nc6ccccc65)n4)CC3)c2)c(=O)oc2cc(OC(=O)N(C)C)ccc12
- inhibition [14]: 35%
- pIC50 [15]: 6.76
- inhibition at 10 µM [16]: 50%
- inhibition at 25 µM [17]: 50%
- inhibition [18]: 35%

SMILES: O=C(NOCCOCCOCCOCCN1CCN(c2nc(N3CCOCC3)nc(-n3c(C(F)F)nc4ccccc43)n2)CC1)c1ccc(F)c(F)c1Nc1ccc(I)cc1F
- pIC50 [19]: 6.74

SMILES: CCn1c(=O)c(-c2cc[nH]n2)cc2c(C)nc(N)nc21 [VOXTALISIB]
- pIC50 [20]: 7.37
- pIC50 [7]: 8.05

SMILES: COc1c(OCCCCCC(=O)NO)ccc2c1N=C(NC(=O)c1ccccc1)N1CCN=C21
- pIC50 [12]: 8.53
- pIC50 [13]: 7.30

More lines, main results first:

- pIC50 [5]: 8.13
- pIC50 [7]: 7.42
SMILES: COc1ccc(-c2ccc3ncc4c(c3c2)n(-c2ccc(N3CCNCC3)c(C(F)(F)F)c2)c(=O)n4C)cn1 [BGT-226 FREE BASE]
- pIC50 [6]: 8.13
- pIC50 [8]: 8.13

- pIC50 [9]: 9.52
- pIC50 [10]: 10.40
SMILES: COc1ncc(-c2ccc3nccc(-c4ccnnc4)c3c2)cc1NS(=O)(=O)c1ccc(F)cc1F [OMIPALISIB]

- pIC50 [12]: 8.89
- pIC50 [13]: 6.65
SMILES: COc1ncc(-c2cc(OCCN(C)c3ncc(C(=O)NO)cn3)c3nc(N)nc(C)c3c2)cc1C

- pIC50 [12]: 8.85
- pIC50 [13]: 7.38
SMILES: COc1ncc(-c2cc(OCCCCCCC(=O)NO)c3nc(N)nc(C)c3c2)cc1F
